For one experiment, the target named is T1, His-AKT (Full Length) (Homo sapiens, UniProt P31749).
T1 construct: 0.1 ng/μl His-AKT (Full Length); His; purchased Invitrogen P2999
In words: AKT enzyme assay. The format is biochemical. Particulars: enzyme inhibition; 160 uM ATP, 90 min at 25° C., Caliper mobility shift. As to the method: (§1) The IC50 values reported for the compounds in the Experimental section were derived from the following protocol for the p70S6K and AKT enzyme assays.
A TTP Mosquito liquid handling instrument was used to place 125 nl of the appropriate concentration of inhibitor in 100% DMSO (for a dose response curve calculation) into each well of a 384-well plate. To this reaction components were added to a final volume of 12.5 μl: • 0.1 ng/μl His-AKT (Full Length), (Invitrogen, Part # P2999, Lot # 641228C). • 160 uM ATP (Fluke, 02055) • 1 mM DTT (Sigma, D0632) • 1 mM MgCl2 (Sigma, M1028) • 1 μM substrate peptide (sequence FITC-AHA-GRPRTSSFAEG-NH2), synthesized by Tufts Peptide Synthesis service. • 100 mM HEPES pH 7.5 (Calbiochem, 391338) • 0.015% Brij-35 (Sigma, B4184)
The reaction was incubated for 90 min at 25° C., and then stopped by the addition of 70 μl of Stop buffer (100 mM HEPES pH 7.5, 0.015% Brij-35, 10 mM EDTA (Sigma, E7889)).
The plate was read on a Caliper LC 3000 in an Off-Chip mobility shift assay format, using the following parameters for a 12-sipper chip: screening pressure −2.3 psi, upstream voltage −500, and downstream voltage −3000. These conditions caused unphosphorylated substrate and phosphorylated product peptide to resolve as separate peaks allowing direct measurement of percentage of conversion of substrate to product. The percent conversion was plotted against concentration of inhibitor to produce a sigmoidal dose response curve, from which an IC50 was calculated.

The target of experiment [1] is T2, P70S6K (T412E mutant, Millipore) (Homo sapiens, UniProt P23443, T412E).
T2 construct: purchased Millipore
The experiment can be described thus: P70S6K enzyme assay. The format is biochemical. The settings on record: enzyme inhibition; 24 μM ATP, 90 min at 25° C., Caliper mobility shift. The procedure:
as §1
P70S6K inhibitor compounds were diluted and plated in 96 well plates. A reaction mixture including the following components was then added to the compound plate to initiate the enzyme reaction; P70S6K (3 nM, T412E mutant, Millipore) was mixed with 24 μM ATP in an assay buffer containing 100 mM Hepes (pH 7.5), 5 mM MgCl2, 1 mM DTT, 0.015% Brij and 1 μM of the substrate peptide FITC-AHA-AKRRRLSSLRA-OH (derived from the S6 ribosomal protein sequence, FITC=fluorescein isothiocyanate, AHA=6-aminohexanoic acid). The reaction was incubated for 90 min at 25° C., before the addition of 10 mM EDTA to stop the reaction. The proportion of substrate and product (phosphorylated) peptide was analysed on a Caliper Life Sciences Lab Chip 3000, using a pressure of −1.4 psi, and upstream and downstream voltages of −3000 and −700 respectively. Product peaks were resolved before substrate peaks on the resulting chromatograms.

Structures are written as SMILES. Some results are limits rather than exact numbers.

Usually IC50 stands for the concentration at which inhibition is half-maximal.

T2 sequence (P23443 whole entry T412E): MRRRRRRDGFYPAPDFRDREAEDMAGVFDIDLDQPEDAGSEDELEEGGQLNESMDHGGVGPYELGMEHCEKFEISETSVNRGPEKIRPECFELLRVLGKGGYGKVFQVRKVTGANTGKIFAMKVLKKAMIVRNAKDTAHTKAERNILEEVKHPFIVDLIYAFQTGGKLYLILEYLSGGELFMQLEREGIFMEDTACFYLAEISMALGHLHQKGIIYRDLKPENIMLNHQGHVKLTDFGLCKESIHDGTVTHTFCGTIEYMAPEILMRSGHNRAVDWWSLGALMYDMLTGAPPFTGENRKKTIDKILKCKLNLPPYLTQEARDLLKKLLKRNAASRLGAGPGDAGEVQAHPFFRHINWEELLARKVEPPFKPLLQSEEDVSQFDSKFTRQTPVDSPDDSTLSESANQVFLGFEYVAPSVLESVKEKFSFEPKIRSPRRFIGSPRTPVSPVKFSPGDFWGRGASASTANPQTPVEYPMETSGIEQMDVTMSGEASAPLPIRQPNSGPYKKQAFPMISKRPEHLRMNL
T1 sequence (P31749 whole entry): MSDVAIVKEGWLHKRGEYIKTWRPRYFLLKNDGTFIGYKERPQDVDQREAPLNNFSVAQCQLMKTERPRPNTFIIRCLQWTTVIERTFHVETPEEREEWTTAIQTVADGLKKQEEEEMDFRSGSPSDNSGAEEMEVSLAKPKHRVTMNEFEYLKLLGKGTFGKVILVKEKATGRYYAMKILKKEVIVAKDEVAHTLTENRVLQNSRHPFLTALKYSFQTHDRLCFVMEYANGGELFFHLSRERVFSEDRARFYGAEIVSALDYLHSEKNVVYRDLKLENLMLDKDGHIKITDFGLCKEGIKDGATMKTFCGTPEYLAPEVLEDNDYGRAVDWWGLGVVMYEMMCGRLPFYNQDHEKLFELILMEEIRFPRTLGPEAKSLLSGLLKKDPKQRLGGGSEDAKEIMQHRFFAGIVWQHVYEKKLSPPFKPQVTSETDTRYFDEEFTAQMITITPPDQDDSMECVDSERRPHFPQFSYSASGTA

For the molecule `CN(C)CCn1cc(-c2ccc(F)c(C(F)(F)F)c2)nc1C1CCN(c2ncnc3c2CCCN3)CC1` [Compound A32, (2-{4-(4-Fluoro-3-trifluoromethyl-phenyl)-2-[1-(5,6,7,8-tetrahydro-pyrido[2,3-d]pyrimidin-4-yl)-piperidin-4-yl]-imidazol-1-yl}-ethyl)-dimethylamine], the IC50 (on His-AKT (Full Length); in experiment [1]) was less than 25 nM in each case.
For `CN(C)CCn1cc(-c2cccc(Cl)c2)nc1C1CCN(c2ncnc3c2NC(=O)CN3)CC1` [Compound A47, 4-{4-[4-(3-ChloroPhenyl)-1-(2-dimethylamin-1-yl-ethyl)-1H-imidazol-2-yl]-piperidin-1-yl}-7,8-dihydro-5H-pteridin-6-one], the IC50 (on His-AKT (Full Length); in experiment [1]) was 101 to 500 nM in each case.
On to `FC(F)(F)c1cc(-c2cn(CCN3CCC3)c(C3CCN(c4ncnc5c4OCCN5)CC3)n2)ccn1` [Compound A2, 4-(4-(1-(2-(azetidin-1-yl)ethyl)-4-(2-(trifluoromethyl)pyridin-4-yl)-1H-imidazol-2-yl)piperidin-1-yl)-7,8-dihydro-6H-pyrimido[5,4-b][1,4]oxazine], for which the concentration for half-maximal inhibition (IC50) is 26 to 100 nM on His-AKT (Full Length) and less than 25 nM in experiment [1].
The corresponding values for `COc1cc(-c2cn(CCN3CCC3)c(C3CCN(c4ncnc5c4CCC5)CC3)n2)ccc1F` [Compound A22, 4-{4-[1-(2-Azetidin-1-yl-ethyl)-4-(4-fluoro-3-methoxy-phenyl)-1H-imidazol-2-yl]-piperidin-1-yl}-6,7-dihydro-5H-cyclopentapyrimidine] are less than 25 nM and less than 25 nM.
The like results for `O=C1CNc2ncnc(N3CCC(c4nc(-c5ccccc5)cn4CCN4CCCC4)CC3)c2N1` [Compound A45, 4-{4-[4-Phenyl-1-(2-pyrrolidin-1-yl-ethyl)-1H-imidazol-2-yl]-piperidin-1-yl}-7,8-dihydro-5H-pteridin-6-one] were, in that order, 501 to 1000 nM and 101 to 500 nM.
For the molecule `Cc1cccc(-c2cn(CCN(C)C)c(C3CCN(c4ncnc5c4NC(=O)CN5)CC3)n2)c1` [Compound A54, 4-{4-[4-(3-MethylPhenyl)-1-(2-dimethylamin-1-yl-ethyl)-1H-imidazol-2-yl]-piperidin-1-yl}-7,8-dihydro-5H-pteridin-6-one], the IC50 at His-AKT (Full Length) was in the range of 101 to 500 nM; in experiment [1], 26 to 100 nM.
For `Cc1cc(-c2cn(CCN(C)C)c(C3CCN(c4ncnc5c4OCCN5)CC3)n2)ccc1F` [Compound A7, {2-[2-[1-(7,8-Dihydro-6H-pyrimido[5,4-b][1,4]oxazin-4-yl)-piperidin-4-yl]-4-(4-fluoro-3-methyl-phenyl)-imidazol-1-yl]-ethyl}-dimethylamine], the 50% inhibitory concentration (IC50) on His-AKT (Full Length) is 26 to 100 nM; in experiment [1] it was less than 25 nM.
With `CN(C)CCn1cc(-c2ccc(F)c(Cl)c2)nc1C1CCN(c2ncnc3c2OCCN3)CC1` [Compound A9, (2-{4-(3-Chloro-4-fluoro-phenyl)-2-[1-(7,8-dihydro-6H-pyrimido[5,4-b][1,4]oxazin-4-yl)-piperidin-4-yl]-imidazol-1-yl}-ethyl)-dimethylamine], the IC50 (on His-AKT (Full Length); in experiment [1]) was less than 25 nM in each case.
For the molecule `O=C1CNc2ncnc(N3CCC(c4nc(-c5cccc(Cl)c5)cn4CCN4CCCC4)CC3)c2N1` [Compound A57, 4-{4-[4-(3-ChloroPhenyl)-1-(2-pyrrolidin-1-yl-ethyl)-1H-imidazol-2-yl]-piperidin-1-yl}-7,8-dihydro-5H-pteridin-6-one], the IC50 (on His-AKT (Full Length); in experiment [1]) was 26 to 100 nM throughout.
For the molecule `CN(C)CCn1cc(-c2ccnc(C(F)(F)F)c2)nc1C1CCN(c2ncnc3c2CCN3)CC1` [Compound A27, {2-[2-[1-(6,7-Dihydro-5H-pyrrolo[2,3-d]pyrimidin-4-yl)-piperidin-4-yl]-4-(2-trifluoromethyl-pyridin-4-yl)-imidazol-1-yl]-ethyl}-dimethylamine], the results for the concentration for half-maximal inhibition (IC50) (on His-AKT (Full Length); in experiment [1]) were 26 to 100 nM and less than 25 nM, respectively.
As for `CN(C)CCn1cc(-c2ccc(F)c(Cl)c2)nc1C1CCN(c2ncnc3c2CCC3)CC1` [Compound A17, (2-{4-(3-Chloro-4-fluoro-phenyl)-2-[1-(6,7-dihydro-5H-cyclopentapyrimidin-4-yl)-piperidin-4-yl]-imidazol-1-yl}-ethyl)-dimethylamine], the IC50 was 26 to 100 nM on His-AKT (Full Length) and less than 25 nM in experiment [1].
As for `O=C1CNc2ncnc(N3CCC(c4nc(-c5ccc(F)c(F)c5)cn4CCN4CCCC4)CC3)c2N1` [Compound A56, 4-{4-[4-(3,4-DifluoroPhenyl)-1-(2-pyrrolidin-1-yl-ethyl)-1H-imidazol-2-yl]-piperidin-1-yl}-7,8-dihydro-5H-pteridin-6-one], the IC50 at His-AKT (Full Length) is less than 25 nM; in experiment [1] it was 26 to 100 nM.
The like results for `COc1cccc(-c2cn(CCN(C)C)c(C3CCN(c4ncnc5c4NC(=O)CN5)CC3)n2)c1` [Compound A51, 4-{4-[4-(3-Methoxy-phenyl)-1-(2-dimethylamin-1-yl-ethyl)-1H-imidazol-2-yl]-piperidin-1-yl}-7,8-dihydro-5H-pteridin-6-one] were, in that order, 501 to 1000 nM and 101 to 500 nM.
The like results for `CN(C)CCn1cc(-c2ccccc2)nc1C1CCN(c2ncnc3c2NC(=O)CN3)CC1` [Compound A53, 4-{4-[4-(Phenyl)-1-(2-dimethylamin-1-yl-ethyl)-1H-imidazol-2-yl]-piperidin-1-yl}-7,8-dihydro-5H-pteridin-6-one] were, in that order, greater than 1000 nM and greater than 1000 nM.
Take `Cc1cc(-c2cn(CCN(C)C)c(C3CCN(c4ncnc5c4CCCN5)CC3)n2)ccc1F` [Compound A33, (2-{4-(4-Fluoro-3-methyl-phenyl)-2-[1-(5,6,7,8-tetrahydro-pyrido[2,3-d]pyrimidin-4-yl)-piperidin-4-yl]-imidazol-1-yl}-ethyl)-dimethylamine]: the IC50 (at His-AKT (Full Length); in experiment [1]) was less than 25 nM each time.
In the case of `COc1cccc(-c2cn(CCN3CCCC3)c(C3CCN(c4ncnc5c4NC(=O)CN5)CC3)n2)c1` [Compound A60, 4-{4-[4-(3-MethoxyPhenyl)-1-(2-pyrrolidin-1-yl-ethyl)-1H-imidazol-2-yl]-piperidin-1-yl}-7,8-dihydro-5H-pteridin-6-one], the IC50 (on His-AKT (Full Length); in experiment [1]) was 101 to 500 nM in each case.
With `CN(C)CCn1cc(-c2ccc(F)c(Cl)c2)nc1C1CCN(c2ncnc3c2CCN3)CC1` [Compound A26, (2-{4-(3-Chloro-4-fluoro-phenyl)-2-[1-(6,7-dihydro-5H-pyrrolo[2,3-d]pyrimidin-4-yl)-piperidin-4-yl]-imidazol-1-yl}-ethyl)-dimethylamine], the IC50 (at His-AKT (Full Length); in experiment [1]) was less than 25 nM each time.
Consider `Cc1cc(-c2cn(CCN3CCC3)c(C3CCN(c4ncnc5c4CCC5)CC3)n2)ccc1F` [Compound A21, 4-{4-[1-(2-Azetidin-1-yl-ethyl)-4-(4-fluoro-3-methyl-phenyl)-1H-imidazol-2-yl]-piperidin-1-yl}-6,7-dihydro-5H-cyclopentapyrimidine], for which the IC50 (on His-AKT (Full Length); in experiment [1]) was less than 25 nM throughout.
For `Cc1cc(-c2cn(CCN(C)C)c(C3CCN(c4ncnc5c4CCN5)CC3)n2)ccc1F` [Compound A24, {2-[2-[1-(6,7-Dihydro-5H-pyrrolo[2,3-d]pyrimidin-4-yl)-piperidin-4-yl]-4-(4-fluoro-3-methyl-phenyl)-imidazol-1-yl]-ethyl}-dimethylamine], the IC50 (on His-AKT (Full Length); in experiment [1]) was less than 25 nM each time.
As to `CN(C)CCn1cc(-c2ccc(F)c(C(F)(F)F)c2)nc1C1CCN(c2ccnc3c2CCCN3)CC1` [Compound A5, 2-(4-(4-fluoro-3-(trifluoromethyl)phenyl)-2-(1-(5,6,7,8-tetrahydro-1,8-naphthyridin-4-yl)piperidin-4-yl)-1H-imidazol-1-yl)-N,N-dimethylethanamine], the IC50 on His-AKT (Full Length) is 26 to 100 nM; in experiment [1], less than 25 nM.
The like results for `Cc1cc(-c2cn(CCN3CCC3)c(C3CCN(c4ncnc5c4CCN5)CC3)n2)ccc1F` [Compound A29, 4-{4-[1-(2-Azetidin-1-yl-ethyl)-4-(4-fluoro-3-methyl-phenyl)-1H-imidazol-2-yl]-piperidin-1-yl}-6,7-dihydro-5H-pyrrolo[2,3-d]pyrimidine] were, in that order, less than 25 nM and less than 25 nM.

Source of the values: patent publication US9315517B2, “Imidazol-piperidinyl derivatives as modulators of kinase activity” (Merck Patent GmbH, priority 2012, dated 2016).
